In US4200650A, “2-Amino-cyclopent-1-ene-1-thiocarboxylic acid-disulfides to treat noradrenergic malfunctions” (Richter Gedeon Vegyeszeti Gyar Rt., priority 1976, dated 1980):

Columns and labels:
Type in all cases: in vivo, male Wistar rats
dopamine-β-hydroxylase [1] = assay: Determination of the noradrenaline content of spleen; conditions: ± standard error
Procedure: (§1) The dopamine-β-hydroxylase inhibiting effects of the new compounds according to the invention were examined by the following tests:
(§2) The tests were performed on male Wistar rats weighing 150 to 200 g. The dopamine-β-hydroxylase inhibiting effects of the compounds were evaluated by determining the change of noradrenaline, dopamine and adrenaline levels of the cerebrum, heart, spleen and adrenal gland. The serotonine and 5-hydroxy-indolylacetic acid levels of the cerebrum were also determined. The measurements were performed as follows:
(§3) The animals were decapitated, the cerebrum, heart, spleen and adrenal gland were removed quickly, and the organs were frozen by placing them onto a metal sheet cooled with dry ice. The frozen organs were stored for maximum one night at -20° C.
(§4) Determination of the noradrenaline content of heart and spleen
(§5) The organs were weighed in frozen state and then homogenized in 5.0 ml of 0.4 n perchloric acid containing 0.05% of EDTA-Naa and 0.1% of Na2 S2 O5. The homogenized mixtures were centrifuged as described above for the treatment of adrenal gland, the supernatants were decanted, and the pH was adjusted to 8.0±0.1 with a 0.1 molar tris buffer containing 20 g/l of NaOH and 25 g/l of EDTA-Na2. 100 mg of prepared Al2 O3 (Anton et al.: J. Pharm. Ther. 138, 360/1962/) were added to the samples, and the mixtures were shaken mechanically for 20 minutes. Thereafter Al2 O3 was washed with 2×10 ml of distilled water, and noradrenaline was eluted with 1.0 ml of 0.05 n perchloric acid. 0.5 ml samples of the eluate were applied for the determination of noradrenaline. Noradrenaline was determined according to the method of Shellenberger et al. (Anal. Biochem. 39, 356/1971/), with the following modifications of the basic procedure: 0.5 ml of 0.1 molar Na-K-phosphate buffer, containing 9 g/l of EDTA-Na2, were added to 0.5 ml of the eluate, and the catecholamines (noradrenaline in the examination of heart and spleen and noradrenaline and dopamine in the examination of the cerebrum) were oxidized with 0.1 ml of a 0.1 n iodine solution in 5% potassium iodide. After exactly 2 minutes oxidation was stopped by adding 0.25 ml of a 2.5% sodium sulfite solution in 4.4 n aqueous sodium hydroxide to the mixture. 2 minutes after the introduction of the alkaline sulfite solution 0.2 ml of concentrated acetic acid were added to the samples, upon which the pH decreased to 4.4 to 4.5 Thereafter the samples were placed for 5 minutes into a drying oven heated to 100° C., and then the samples were cooled with ice water. The fluorescency of noradrenaline was measured with an OPTON spectrophotometer at wavelengths of 380 nm (excitation) and 490 nm (emission).
(§6) In the tests disulfiram, 2,2-dipyridyl, bis(1-methyl-4-homopiperazinyl-thriocaronyl)-disulfide, sodium diethyldithiocarbamate and N-phenyl-N'-(2-thiazolyl)-thiourea were applied as reference substances. The values indicated in Table 1 are the percentages in relation to the amine levels of the controls measured in the same tests (± standard error). The statistical calculations were performed on a TPA/i type computer, using Student's t test.

dopamine-β-hydroxylase [2] = assay: Determination of the adrenaline content of adrenal gland; conditions: ± standard error
Procedure: as §1, §2, §3
Determination of the adrenaline content of adrenal gland
The adrenal glands were freed from fat and homogenized in 3.0 ml of ice-cold 0.4 n perchloric acid. The homogenized mixtures were centrifuged for 10 minutes at 0° C. with a speed of 3200 r.p.m. using a Janetzky K-70 type centrifuge. 0.05 ml samples were taken from the supernatant, and the adrenaline level was determined directly by the method of Laverty et al. (Anal. Biochem. 22, 269/1968/).
as §6

dopamine-β-hydroxylase [3] = assay: Determination of noradrenaline and dopamine levels of brain (dopamine-β-hydroxylase inhibiting effect)
Procedure: as §1, §2, §3
Determination of the noradrenaline, dopamine, serotonine and 5-hydroxy-indolylacetic acid contents of brain
The brains were homogenized in 10 parts by volume of 0.4 n perchloric acid. The homogenized mixture was stored at -20° C. overnight, thereafter it was thawed and centrifuged as described above. A sample of the homogenized mixture corresponding to 0.5 g of brain was removed, the pH of the sample was adjusted to 8.0±0.1 with 0.1 molar tris-buffer of the above composition, and the sample was processed as described above for the determination of the noradrenaline content of heart and spleen, with the difference that 1.5 ml of 0.05 n perchloric acid were applied as eluting agent. 0.5 ml of the eluate were applied to determine the noradrenaline and dopamine contents. The measurement was performed as described above, with the difference that samples of 0.5 ml were applied for the recording of the fluorescency of noradrenaline. The residua was placed for 50 minutes into a drying oven heated to 100° C., thereafter the sample was cooled with ice water, and the fluorescency of dopamine was recorded at wavelengths of 325 nm (excitation) and 380 nm (emission).
In a further test series the serotonine and 5-hydroxy-indolylacetic acid contents were also determined, beside the determination of the noradrenaline and dopamine content, from the same sample. In this instance the brains were homogenized in 10 ml of 75% ethanol, 0.2 ml of EDTA-Na2 and 5% of ascorbic acid were added to the homogenized mixtures, and the homogenized mixtures were maintained at -20° C. overnight. The mixtures were centrifuged as described above, and 5.0 ml samples of the supernatant were removed. The samples were diluted with equal volumes of distilled water, and poured onto ion exchange columns of 0.5×1.5 cm dimensions, filled with buffered Amberlite CG-30 (200 to 400 mesh). The columns were washed with 5 ml of distilled water followed by 1.0 ml of 0.2 n hydrochloric acid, and the first effluent and the aqueous wash were collected for the determination of 5-hydroxy-indolylacetic acid. Elution was continued with further 1.2 ml of 0.2 n hydrochloric acid in order to remove noradrenaline, dopamine and serotonine. Samples of 0.3 ml were used for the determinations.
Noradrenaline and dopamine were determined by the method of Shellenberger, modified as described above, whereas serotonine was determined by the method of Curzon et al. (Brit. J. Pharmacol. 39, 653/1970/). The basic method was modified as follows: A 0.5% solution of ortho-phthal(di)aldehyde in absolute ethanol was diluted with 10 n hydrochloric acid to 50-fold of its original volume, and 0.6 ml of the resulting 0.01% ortho-phthal(di)aldehyde solution were added immediately to 0.5 ml of the serotonine-containing sample. The sample was placed into a hot water bath for 10 minutes, thereafter cooled with tap water, and the fluorescency was recorded at wavelengths of 360 nm (excitation) and 490 nm (emission).
In the tests disulfiram, 2,2-dipyridyl, bis(1-methyl-4-homopiperazinyl-thriocaronyl)-disulfide, sodium diethyldithiocarbamate and N-phenyl-N'-(2-thiazolyl)-thiourea were applied as reference substances. […]

dopamine-β-hydroxylase [4] = assay: Determination of the noradrenaline content of heart; conditions: ± standard error
Procedure: as §1, §2, §3, §4, §5, §6

[5] = i.p., 100 mg/kg, 4 hours, ± standard error
[6] = i.p., 200 mg/kg, 4 hours, ± standard error
[7] = i.p., 200 mg/kg, 8 hours, ± standard error
[8] = i.p., 50 mg/kg, 4 hours, ± standard error
[9] = p.o., 500 mg/kg, 4 hours, ± standard error
[10] = p.o., 500 mg/kg, 8 hours, ± standard error
[11] = i.p., 400 mg/kg, time not given

SMILES | Spleen NA (noradrenaline) level, percentages in relation to the controls (dopamine-β-hydroxylase [1]; i.p., 200 mg/kg, 4 hours) | Spleen NA (noradrenaline) level, percentages in relation to the controls (dopamine-β-hydroxylase [1]; i.p., 200 mg/kg, 8 hours) | Adrenal gland AD (adrenaline) level, percentages in relation to the controls (dopamine-β-hydroxylase [2]; i.p., 100 mg/kg, 4 hours) | Adrenal gland AD (adrenaline) level, percentages in relation to the controls (dopamine-β-hydroxylase [2]; i.p., 200 mg/kg, 4 hours) | Adrenal gland AD (adrenaline) level, percentages in relation to the controls (dopamine-β-hydroxylase [2]; i.p., 200 mg/kg, 8 hours) | Brain DA (dopamine) level, percentages in relation to the controls (dopamine-β-hydroxylase [3]; [5]) | Brain NA (noradrenaline) level, percentages in relation to the controls (dopamine-β-hydroxylase [3]; [5]) | Brain DA (dopamine) level, percentages in relation to the controls (dopamine-β-hydroxylase [3]; [6]) | Brain NA (noradrenaline) level, percentages in relation to the controls (dopamine-β-hydroxylase [3]; [6]) | Brain DA (dopamine) level, percentages in relation to the controls (dopamine-β-hydroxylase [3]; [7]) | Brain NA (noradrenaline) level, percentages in relation to the controls (dopamine-β-hydroxylase [3]; [7]) | Heart NA (noradrenaline) level, percentages in relation to the controls (dopamine-β-hydroxylase [4]; i.p., 100 mg/kg, 4 hours) | Heart NA (noradrenaline) level, percentages in relation to the controls (dopamine-β-hydroxylase [4]; i.p., 200 mg/kg, 4 hours) | Heart NA (noradrenaline) level, percentages in relation to the controls (dopamine-β-hydroxylase [4]; i.p., 200 mg/kg, 8 hours) | Adrenal gland AD (adrenaline) level, percentages in relation to the controls (dopamine-β-hydroxylase [2]; p.o., 500 mg/kg, 4 hours) | Brain DA (dopamine) level, percentages in relation to the controls (dopamine-β-hydroxylase [3]; [9]) | Brain NA (noradrenaline) level, percentages in relation to the controls (dopamine-β-hydroxylase [3]; [9]) | Heart NA (noradrenaline) level, percentages in relation to the controls (dopamine-β-hydroxylase [4]; p.o., 500 mg/kg, 4 hours) | also measured
NC1=C(C(=S)SSC(=S)C2=C(N)CCC2)CCC1 [Compound M-1] | 92.6±12.4% | 91.2±12.6% | 87.2±6.7% | 70.9±5.8% | 60.2±3.2% | 121.2±5.8% | 69.5±12.1% | 124.5±1.9% | 56.7±5.9% | 109.0±5.9% | 56.5±6.3% | 86.5±3.7% | 82.5±5.4% | 83.2±9.5% | – | – | – | – | –
CCCCNC1=C(C([O-])=S)CCC1.CCCCNC1=C(C([O-])=S)CCC1.[Zn+2] [Compound M-3, 2-(N-butyl)-amino-cyclopent-1-ene-thiocarboxylic acid-disulfide(zinc salt)] | – | – | 60.5±3.6% | – | – | 121.3±6.1% | 73.5±3.2% | – | – | – | – | 91.5±8.1% | – | – | 100.3±8.3% | 99.2±5.0% | 98.8±2.5% | 108.8±3.2% | Adrenal gland AD (adrenaline) level, percentages in relation to the controls (dopamine-β-hydroxylase [2]; i.p., 50 mg/kg, 4 hours): 66.3±5.5%; Brain DA (dopamine) level, percentages in relation to the controls (dopamine-β-hydroxylase [3]; [8]): 112.2±12.0%; Brain NA (noradrenaline) level, percentages in relation to the controls (dopamine-β-hydroxylase [3]; [8]): 85.0±7.1%; Heart NA (noradrenaline) level, percentages in relation to the controls (dopamine-β-hydroxylase [4]; i.p., 50 mg/kg, 4 hours): 84.5±4.1%
COCCNC1=C(C(=S)SSC(=S)C2=C(NCCOC)CCC2)CCC1 [Compound M-4, 2-(N-methoxyethyl)-amino-cyclopent-1-ene-thiocarboxylic acid disulfide] | 69.9±16.9% | 61.9±9.9% | 77.5±6.3% | 96.3±6.7% | 97.0±7.9% | 131.5±8.9% | 41.9±2.7% | 134.6±4.0% | 39.6±4.9% | 120.6±5.8% | 28.5±1.4% | 91.8±5.9% | 91.7±9.2% | 75.7±3.7% | 96.3±6.0% | 114.5±2.4% | 73.6±2.8% | 86.3±10.1% | Spleen NA (noradrenaline) level, percentages in relation to the controls (dopamine-β-hydroxylase [1]; i.p., 100 mg/kg, 4 hours): 81.4±10.8%; Spleen NA (noradrenaline) level, percentages in relation to the controls (dopamine-β-hydroxylase [1]; p.o., 500 mg/kg, 4 hours): 103.1±18.9%; Spleen NA (noradrenaline) level, percentages in relation to the controls (dopamine-β-hydroxylase [1]; p.o., 500 mg/kg, 8 hours): 101.0±14.3%; Adrenal gland AD (adrenaline) level, percentages in relation to the controls (dopamine-β-hydroxylase [2]; p.o., 500 mg/kg, 8 hours): 88.1±5.1%; Brain DA (dopamine) level, percentages in relation to the controls (dopamine-β-hydroxylase [3]; [10]): 111.0±4.0%; Brain NA (noradrenaline) level, percentages in relation to the controls (dopamine-β-hydroxylase [3]; [10]): 51.2±2.8%; Heart NA (noradrenaline) level, percentages in relation to the controls (dopamine-β-hydroxylase [4]; p.o., 500 mg/kg, 8 hours): 74.0±8.4%
S=C(SSC(=S)C1=C(NC2CCCCC2)CCC1)C1=C(NC2CCCCC2)CCC1 [Compound M-5, 2-(N-cyclohexyl)-amino-cyclopent-1-ene-thiocarboxylic acid disulfide] | 83.2±8.9% | 68.7±6.7% | – | 109.0±2.3% | 105.6±3.3% | – | – | 124.2±4.0% | 64.6±1.8% | 116.2±3.3% | 76.9±2.2% | – | 94.7±6.8% | 89.5±3.0% | – | – | – | – | –
CCN(CC)C(=S)[S-].[Na+] [DDC-Na, sodium diethyldithiocarbamate, reference compound] | – | – | – | – | – | – | – | – | – | – | – | – | – | – | – | – | – | – | Brain DA (dopamine) level, percentages in relation to the controls (dopamine-β-hydroxylase [3]; [11]): 120%; Brain NA (noradrenaline) level, percentages in relation to the controls (dopamine-β-hydroxylase [3]; [11]): 64.1%
